30 molecules from patent US10562891B2, “Quinazolinones as PARP14 inhibitors” (Ribon Therapeutics Inc., priority 2017, dated 2020) can be followed below.

Structures can show the parent of a compound that is named as a salt. Where only a bound is given, the exact number is not on record here.

The target in this test is catalytic domain of human PARP14 (Homo sapiens (Human), UniProt Q460N5). The experiment in a line: Enzymatic assay for inhibition of PARP14 (DELFIA, auto-modification with biotin-NAD). The test is classed as biochemical. The settings on record: auto-modification of PARP14 by biotin-NAD, 50 nM PARP14, 3 μM biotin-NAD. As for the experimental part: An N-terminal His-TEV fusion tag was used to purify the protein from cell lysates. The His-TEV tag was left on the protein for use in the enzymatic assay.
catalytic domain of human PARP14, sequence (Q460N5 1611-1801): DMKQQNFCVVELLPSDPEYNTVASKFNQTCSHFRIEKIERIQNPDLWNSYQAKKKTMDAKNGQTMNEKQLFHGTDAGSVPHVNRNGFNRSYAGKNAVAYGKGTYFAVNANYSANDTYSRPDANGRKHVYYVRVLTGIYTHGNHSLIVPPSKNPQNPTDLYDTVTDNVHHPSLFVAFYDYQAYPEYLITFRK
Enzymatic inhibition of PARP14 was measured using a dissociation-enhanced lanthanide fluorescence immunoassay (DELFIA) monitoring the auto-modification of PARP14 by biotinylated nicotinamide adenine dinucleotide (biotin-NAD). 1 μL of a dose response curve of each test compound was spotted in 384-well nickel-coated white microplates (Thermo) using a Mosquito (TTP Labtech). Reactions were performed in a 50 μL volume by adding 40 μL of PARP14 in assay buffer (20 mM HEPES pH==8, 100 mM NaCl, 0.1% bovine serum albumin, 2 mM DTT and 0.002%0 Tween20), incubating with test compound at 25° C. for 30 min, then adding 10 μL of biotin-NAD (Biolog). The final concentrations of PARP14 and biotin-NAD are 50 nM and 3 μM, respectively. Reactions proceeded at 25° C. for 3 h, then were quenched with 5 μL of 10 mM unmodified nicotinamide adenine dinucleotide (Sigma-Aldrich). The quenched reactions were washed 3 times with 100 μL of TBST wash buffer (50 mM Tris-HCl, 150 mM NaCl and 0.1% Tween20). Next, to the washed and dried plate was added 25 μL of DELFIA Europium-N1 streptavidin (Perkin Elmer) diluted in DELFIA assay buffer (Perkin Elmer). After a 30 min incubation at 25° C., the plate was washed 5 times with TBST wash buffer. Finally, 25 μL of DELFIA enhancement solution was added. After a 5 min incubation the plate was read on an Envision platereader equipped with a LANCE/DELFIA top mirror (Perkin Elmer) using excitation of 340 nm and emission of 615 nm to measure the amount of Europium present in each well, informing on the amount of biotin-NAD that was transferred in the automodification reaction.
[formula] where ex615cmpd is the emission from the compound treated well, ex615min is the emission from the rucaparib treated positive control well and ex615max is the emission from the DMSO treated negative control well.
The % inhibition values were plotted as a function of compound concentration and the following 4-parameter fit was applied to derive the IC50 values:
[formula] where top and bottom are normally allowed to float, but may be fixed at 100 or 0 respectively in a 3-parameter fit. The Hill Coefficient is normally allowed to float but may also be fixed at 1 in a 3-parameter fit. Y is the % inhibition and X is the compound concentration.

With `O=c1[nH]c(CSC2CCOCC2)nc2cc(Nc3nccs3)ccc12` [Example 89, 2-(((Tetrahydro-2H-pyran-4-yl)thio)methyl)-7-(thiazol-2-ylamino)quinazolin-4(3H)-one], the 50% inhibitory concentration (IC50) lay within 1000 to 10000 nM.
For the molecule `O=c1[nH]c(CSC2CCOCC2)nc2cc(Nc3ccon3)ccc12` [Example 94, 7-(Isoxazol-3-ylamino)-2-(((tetrahydro-2H-pyran-4-yl)thio)methyl)quinazolin-4(3H)-one], the IC50 was less than 1000 nM.
To `O=c1[nH]c(CSC2CCNCC2)nc2cc(NC3CCCC3)c(F)cc12` [Example 226, 7-(Cyclopentylamino)-6-fluoro-2-((piperidin-4-ylthio)methyl)quinazolin-4(3H)-one hydrochloride] belongs less than 1000 nM; to `Cc1cccc2c(=O)[nH]c(CSC3CCN(C[C@@H](O)CO)CC3)nc12` [Example 160, (R)-2-(((1-(2,3-Dihydroxypropyl)piperidin-4-yl)thio)methyl)-8-methyl quinazolin-4(3H)-one Trifluoroacetate], 1000 to 10000 nM.
The molecule `CN1C[C@H](COc2cc(F)c3c(=O)[nH]c(CSC4CCOCC4)nc3c2)[C@H](F)C1` (relative stereo) [Example 372] gave an IC50 of less than 1000 nM.
To `O=c1[nH]c(CSC2CCS(=O)(=O)CC2)nc2cc(NCC3CCC3)c(F)c(F)c12` [Example 339] belongs less than 1000 nM; to `CN(c1ccc2c(=O)[nH]c(CSC3CCOCC3)nc2c1)C1CCCCC1` [Example 125, 7-(Cyclohexyl(methyl)amino)-2-(((tetrahydro-2H-pyran-4-yl)thio)methyl)quinazolin-4(3H)-one], 1000 to 10000 nM.
To `CN1CCC(Nc2ccc3c(=O)[nH]c(CSC4CCOCC4)nc3c2)CC1` [Example 113, 7-((1-Methylpiperidin-4-yl)amino)-2-(((tetrahydro-2H-pyran-4-yl)thio)methyl)quinazolin-4(3H)-one] belongs greater than 10000 nM; to `O=c1[nH]c(CSC2CCS(=O)(=O)CC2)nc2cc(NCC3CCC3)c(F)cc12` [Example 296, 7-((Cyclobutylmethyl)amino)-2-(((1,1-dioxidotetrahydro-2H-thiopyran-4-yl)thio)methyl)-6-fluoroquinazolin-4(3H)-one], less than 1000 nM; to `O=c1[nH]c(CSC2CCNCC2)nc2cc(NCC3CCC3)c(F)cc12` [Example 289, 7-((Cyclobutylmethyl)amino)-6-fluoro-2-((piperidin-4-ylthio)methyl)quinazolin-4(3H)-one hydrochloride], 1000 to 10000 nM.
The figure for `O=c1[nH]c(CSC2CCOCC2)nc2cc(CCC3CCCCC3)cc(F)c12` [Example 368] is 1000 to 10000 nM; for `Cc1cccc2c(=O)[nH]c(CS[C@H]3CC[C@H](CO)CC3)nc12` [Example 62, 2-(((trans-4-(Hydroxymethyl)cyclohexyl)thio)methyl)-8-methylquinazolin-4(3H)-one] it is less than 1000 nM; for `Cc1cc(Nc2ccc3c(=O)[nH]c(CSC4CCOCC4)nc3c2)on1` [Example 192, 7-((3-methylisoxazol-5-yl)amino)-2-(((tetrahydro-2H-pyran-4-yl)thio)methyl)quinazolin-4(3H)-one] it is less than 1000 nM.
Regarding `Cc1cccc2c(=O)[nH]c(CSC3CCN(Cc4cc[nH]n4)CC3)nc12` [Example 142, 2-(((1-((1H-Pyrazol-3-yl)methyl)piperidin-4-yl)thio)methyl)-8-methylquinazolin-4(3H)-one trifluoroacetate], the IC50 was less than 1000 nM.
The figure for `CN1CCOC(COc2cc(F)c3c(=O)[nH]c(CSC4CCOCC4)nc3c2)C1` (stereo not drawn) [Example 414] is less than 1000 nM; for `O=c1[nH]c(CSC2CCOCC2)nc2cc(N3CCOCC3)ccc12` [Example 111, 7-Morpholino-2-(((tetrahydro-2H-pyran-4-yl)thio)methyl)quinazolin-4(3H)-one] it is 1000 to 10000 nM; for `C[C@]1(O)CC[C@H](SCc2nc3cc(OCC4CCOCC4)cc(F)c3c(=O)[nH]2)CC1` [Example 332, 5-Fluoro-2-((((cis)-4-hydroxy-4-methylcyclohexyl)thio)methyl)-7-((tetrahydro-2H-pyran-4-yl)methoxy)quinazolin-4(3H)-one] it is less than 1000 nM.
To `COC(=O)N1CCC(COc2cc(F)c3c(=O)[nH]c(CSC4CCOCC4)nc3c2)CC1` [Example 410] belongs less than 1000 nM.
Molecule `O=c1[nH]c(CS[C@H]2CC[C@H](O)CC2)nc2cc(OC[C@H]3CCOC3)cc(F)c12` [Example 325b, 5-Fluoro-2-((((trans)-4-hydroxycyclohexyl)thio)methyl)-7-(((S)-tetrahydrofuran-3-yl)methoxy)quinazolin-4(3H)-one] yielded an IC50 of less than 1000 nM.
To `O=c1[nH]c(CSC2CCS(=O)(=O)CC2)nc2cc(NC3CCCC3)cc(F)c12` [Example 270, 7-(Cyclopentylamino)-2-(((1,1-dioxidotetrahydro-2H-thiopyran-4-yl)thio)methyl)-5-fluoroquinazolin-4(3H)-one] belongs less than 1000 nM.
Take `CO[C@H]1C[C@H](Nc2cc3nc(CSC4CCOCC4)[nH]c(=O)c3c(F)c2F)C1` [Example 362]: the IC50 is less than 1000 nM.
`O=c1[nH]c(CS[C@H]2CC[C@H](O)CC2)nc2cc(N[C@@H]3CCC[C@@H]3F)cc(F)c12` (relative stereo) [Example 341] registered an IC50 of less than 1000 nM.
The figure for `CO[C@H]1CC[C@@H](Nc2cc3nc(CS[C@H]4CC[C@H](O)CC4)[nH]c(=O)c3c(F)c2F)CC1` [Example 379] is less than 1000 nM; for `Cc1cccnc1CN1CCC(SCc2nc3c(C)cccc3c(=O)[nH]2)CC1` [Example 146, 8-Methyl-2-(((1-((3-methylpyridin-2-yl)methyl)piperidin-4-yl)thio)methyl)quinazolin-4(3H)-one bistrifluoroacetate] it is less than 1000 nM.
Molecule `CNC[C@H]1CC[C@H](SCc2nc3c(C)cccc3c(=O)[nH]2)CC1` [Example 73, 8-Methyl-2-(((trans-4-((methylamino)methyl)cyclohexyl)thio)methyl) quinazolin-4(3H)-one] showed an IC50 of less than 1000 nM.
As to `O=c1[nH]c(CS[C@H]2CCNC[C@H](F)C2)nc2cc(NC3CCCC3)cc(F)c12` (relative stereo) [Example 240, 7-(Cyclopentylamino)-5-fluoro-2-(((trans-6-fluoroazepan-4-yl)thio)methyl)quinazolin-4(3H)-one], the concentration for half-maximal inhibition (IC50) is less than 1000 nM.
Regarding `O=c1[nH]c(CSC2CCOCC2)nc2cc(OCC3CC3)cc(F)c12` [Example 291, 7-(Cyclopropylmethoxy)-5-fluoro-2-(((tetrahydro-2H-pyran-4-yl)thio)methyl)quinazolin-4(3H)-one], the IC50 was less than 1000 nM.
The figure for `Cc1cccc2c(=O)[nH]c(CSC3CCCOCC3)nc12` (stereo not drawn) [Example 198, 8-methyl-2-((oxepan-4-ylthio)methyl)quinazolin-4(3H)-one] is 1000 to 10000 nM; for `CN1CCC(SCc2nc3cc(NC4CCCC4)cc(F)c3c(=O)[nH]2)CC1` [Example 246, 7-(Cyclopentylamino)-5-fluoro-2-(((1-methylpiperidin-4-yl)thio)methyl)quinazolin-4(3H)-one] it is less than 1000 nM.
The figure for `O=c1[nH]c(CS[C@H]2CC[C@H](CO)CC2)nc2cc(Nc3ccccc3)ccc12` [Example 104, 2-(((trans-4-(Hydroxymethyl)cyclohexyl)thio)methyl)-7-(phenylamino) quinazolin-4(3H)-one] is 1000 to 10000 nM.
